In patent publication EP0414533A1, “Use of iodopropargyl esters of alpha-amino acid derivatives as antimicrobial agents” (ROHM AND HAAS COMPANY, priority 1989, dated 1991):
Like-named read-outs stand apart in the source and are kept apart here.

How the values were obtained:
Aspergillus niger (ANIG) = assay: Minimum inhibitory concentration (MIC), broth two-fold serial dilution test; assay type: cell-based; details: Aspergillus niger, IIIB, trypticase soy broth (complex media); Table IIIb; read-out: MIC (F) ANIG
[1] = tested on: MIXED COOLING TOWER ALGAE; assay: MIC test against mixed cooling tower algae; assay type: cell-based, green algae and blue-green bacteria; details: Table VIII
Description: The algae culture contains green algae and blue-green bacteria, and is obtained from a cooling tower in Spring House, Pennsylvania. The algae culture is grown in Allen's medium on a rotary shaker under flourescent room lighting. This culture is further diluted with Allen's medium and then added to the test vessel.

ALT = assay: In-vitro plant fungicide test; assay type: cell-based; details: Table IVb, read-out: % Control at (ppm) indicated ALT
Botrytis cinerea (BOC) = assay: In-vitro plant fungicide test; assay type: cell-based; details: Botrytis cinerea
CER = assay: In-vitro plant fungicide test; assay type: cell-based; details: Table IVb, read-out: % Control at (ppm) indicated CER
MON = assay: In-vitro plant fungicide test; assay type: cell-based; details: Table IVb, read-out: % Control at (ppm) indicated MON
[2] = tested on: Phytophthora capsici (PHY); assay: In-vitro plant fungicide test; assay type: cell-based; details: Phytophthora capsici
Piricularia oryzae (PIR) = assay: microbe, parasite or virus in culture; assay type: cell-based
Pythium ultimum (PYU) = assay: In-vitro plant fungicide test; assay type: cell-based; details: Globisporangium ultimum
Rhizoctonia solani (RHI) = assay: In-vitro plant fungicide test; assay type: cell-based; details: Rhizoctonia solani
Septoria nodorum (SEP) = assay: In-vitro plant fungicide test; assay type: cell-based; details: Parastagonospora nodorum
UST = assay: In-vitro plant fungicide test; assay type: cell-based; details: Table IVb, read-out: % Control at (ppm) indicated UST
[3] = tested on: Xanthomonas campestris (XAN); assay: In-vitro plant fungicide test; assay type: cell-based; details: Xanthomonas campestris; 25 ppm; Table IVa; read-out: % Control at 25 ppm XAN
[4] = tested on: Pseudomonas fluorescens (PSFL); assay: Minimum inhibitory concentration (MIC), broth two-fold serial dilution test; details: Pseudomonas fluorescens, IIIB, read-out: MIC (G-) PSFL, trypticase soy broth (complex media); Table IIIb
[5] = tested on: Pseudomonas aerugenosa (PSAE); assay: as above; details: Pseudomonas, IIIB, read-out: MIC (G-) PSAE, trypticase soy broth (complex media); Table IIIb
Escherichia coli (ECOL) = assay: as above; details: Escherichia coli, IIIB, read-out: MIC (G-) ECOL, trypticase soy broth (complex media); Table IIIb
Description: When the test is ready to be done, each vessel in the dilution series, except the first vessel, contains an equal volume of compound free broth. The first vessel contains twice the volume of broth with the starting concentration of test compound. One half of the broth from the first vessel is transferred to the second vessel. After being mixed, one half the resulting volume is removed from the second vessel and transferred to the third vessel. The entire cycle is repeated sufficiently to give a series of concentrations amounting to 500, 250, 125, 63, 31, 16, 8, and 4 ppm (or 100, 50, 25, 12.5, 6.2, 3.1, 1.6, and 0.8), respectively.
Each vessel is then inoculated with a cell suspension of the appropriate test organism. Bacteria are grown in broth, fungi on agar slants for a time and at a temperature appropriate to the species being tested, and algae are a mixture of green algae and blue-green bacteria grown in a nutrient media. At the end of the growth period, in the case of bacteria, the broth is vortexed to disperse the cells.
The vessels are then incubated at the appropriate temperature. After the incubation, the vessels are examined for growth/no growth.

[6] = tested on: Staphylococcus aureus (SAUR); assay: as above; details: Staphylococcus aureus, IIIB, read-out: MIC (G+) SAUR, trypticase soy broth (complex media); Table IIIb
[7] = Table IVa, *=Phytotoxic, read-out: % Control at 25 ppm BOC
[8] = Table IVa, read-out: % Control at 25 ppm PHY
[9] = read-out: % Control at 25 ppm PIR
[10] = Table IVa, read-out: % Control at 25 ppm PYU
[11] = Table IVa, read-out: % Control at 25 ppm RHI
[12] = Table IVa, read-out: % Control at 25 ppm SEP

CC(=O)NCC(=O)OCC#CI [Compound 28, N-acetylglycine iodopropargyl ester]
6.2 µg/mL: MIC [1]
0%: inhibition of growth at 1.5 ppm (ALT; 1.5 ppm) | inhibition of growth at 3 ppm (ALT; 3 ppm) | inhibition of growth at 0.2 ppm (ALT; .2 ppm) | inhibition of growth at 0.4 ppm (ALT; .4 ppm) | inhibition of growth at 0.8 ppm (ALT; .8 ppm) | inhibition of growth at 1.5 ppm (Botrytis cinerea (BOC); 1.5 ppm, Table IVb, read-out: % Control at (ppm) indicated BOC) | inhibition of growth at 6 ppm (Botrytis cinerea (BOC); 6 ppm, Table IVb, read-out: % Control at (ppm) indicated BOC) | inhibition of growth at 0.2 ppm (Botrytis cinerea (BOC); .2 ppm, Table IVb, read-out: % Control at (ppm) indicated BOC) | inhibition of growth at 0.4 ppm (Botrytis cinerea (BOC); .4 ppm, Table IVb, read-out: % Control at (ppm) indicated BOC) | inhibition of growth at 0.8 ppm (Botrytis cinerea (BOC); .8 ppm, Table IVb, read-out: % Control at (ppm) indicated BOC) | inhibition of growth at 1.5 ppm (CER; 1.5 ppm) | inhibition of growth at 0.2 ppm (CER; .2 ppm) | inhibition of growth at 0.4 ppm (CER; .4 ppm) | inhibition of growth at 0.8 ppm (CER; .8 ppm) | inhibition of growth at 1.5 ppm (MON; 1.5 ppm) | inhibition of growth at 0.2 ppm (MON; .2 ppm) | inhibition of growth at 0.4 ppm (MON; .4 ppm) | inhibition of growth at 0.8 ppm (MON; .8 ppm) | inhibition of growth at 1.5 ppm ([2]; 1.5 ppm, Table IVb, read-out: % Control at (ppm) indicated PHY) | inhibition of growth at 0.2 ppm ([2]; .2 ppm, Table IVb, read-out: % Control at (ppm) indicated PHY) | inhibition of growth at 0.4 ppm ([2]; .4 ppm, Table IVb, read-out: % Control at (ppm) indicated PHY) | inhibition of growth at 0.8 ppm ([2]; .8 ppm, Table IVb, read-out: % Control at (ppm) indicated PHY) | inhibition of growth at 1.5 ppm (Piricularia oryzae (PIR); 1.5 ppm, read-out: % Control at (ppm) indicated PIR) | inhibition of growth at 0.2 ppm (Piricularia oryzae (PIR); .2 ppm, read-out: % Control at (ppm) indicated PIR) | inhibition of growth at 0.4 ppm (Piricularia oryzae (PIR); .4 ppm, read-out: % Control at (ppm) indicated PIR) | inhibition of growth at 0.8 ppm (Piricularia oryzae (PIR); .8 ppm, read-out: % Control at (ppm) indicated PIR) | inhibition of growth at 1.5 ppm (Pythium ultimum (PYU); 1.5 ppm, Table IVb, read-out: % Control at (ppm) indicated PYU) | inhibition of growth at 0.2 ppm (Pythium ultimum (PYU); .2 ppm, Table IVb, read-out: % Control at (ppm) indicated PYU) | inhibition of growth at 0.4 ppm (Pythium ultimum (PYU); .4 ppm, Table IVb, read-out: % Control at (ppm) indicated PYU) | inhibition of growth at 0.8 ppm (Pythium ultimum (PYU); .8 ppm, Table IVb, read-out: % Control at (ppm) indicated PYU) | inhibition of growth at 0.2 ppm (Rhizoctonia solani (RHI); .2 ppm, Table IVb, read-out: % Control at (ppm) indicated RHI) | inhibition of growth at 0.4 ppm (Rhizoctonia solani (RHI); .4 ppm, Table IVb, read-out: % Control at (ppm) indicated RHI) | inhibition of growth at 0.8 ppm (Rhizoctonia solani (RHI); .8 ppm, Table IVb, read-out: % Control at (ppm) indicated RHI) | inhibition of growth at 1.5 ppm (Septoria nodorum (SEP); 1.5 ppm, Table IVb, read-out: % Control at (ppm) indicated SEP) | inhibition of growth at 6 ppm (Septoria nodorum (SEP); 6 ppm, Table IVb, read-out: % Control at (ppm) indicated SEP) | inhibition of growth at 0.2 ppm (Septoria nodorum (SEP); .2 ppm, Table IVb, read-out: % Control at (ppm) indicated SEP) | inhibition of growth at 0.4 ppm (Septoria nodorum (SEP); .4 ppm, Table IVb, read-out: % Control at (ppm) indicated SEP) | inhibition of growth at 0.8 ppm (Septoria nodorum (SEP); .8 ppm, Table IVb, read-out: % Control at (ppm) indicated SEP) | inhibition of growth at 0.2 ppm (UST; .2 ppm) | inhibition of growth at 0.4 ppm (UST; .4 ppm) | inhibition of growth at 0.8 ppm (UST; .8 ppm)
63 µg/mL: MIC [4] | MIC [5] | MIC (Escherichia coli (ECOL)) | MIC [6]
2 µg/mL: MIC (Aspergillus niger (ANIG))
75%: inhibition of growth at 6 ppm (ALT; 6 ppm)
50%: inhibition of growth at 1.5 ppm (UST; 1.5 ppm) | inhibition of growth at 25 ppm [3]
100%: inhibition of growth at 12 ppm (ALT; 12 ppm) | inhibition of growth at 25 ppm (ALT; 25 ppm) | inhibition of growth at 25 ppm (Botrytis cinerea (BOC); [7]) | inhibition of growth at 25 ppm (Botrytis cinerea (BOC); Table IVb, read-out: % Control at (ppm) indicated BOC) | inhibition of growth at 6 ppm (CER; 6 ppm) | inhibition of growth at 25 ppm (CER; 25 ppm) | inhibition of growth at 6 ppm (MON; 6 ppm) | inhibition of growth at 25 ppm (MON; 25 ppm) | inhibition of growth at 6 ppm ([2]; 6 ppm, Table IVb, read-out: % Control at (ppm) indicated PHY) | inhibition of growth at 25 ppm [2, 8] | inhibition of growth at 25 ppm ([2]; Table IVb, read-out: % Control at (ppm) indicated PHY) | inhibition of growth at 6 ppm (Piricularia oryzae (PIR); 6 ppm, read-out: % Control at (ppm) indicated PIR) | inhibition of growth at 25 ppm (Piricularia oryzae (PIR); 25 ppm, read-out: % Control at (ppm) indicated PIR) | inhibition of growth at 25 ppm (Piricularia oryzae (PIR); [9]) | inhibition of growth at 6 ppm (Pythium ultimum (PYU); 6 ppm, Table IVb, read-out: % Control at (ppm) indicated PYU) | inhibition of growth at 25 ppm (Pythium ultimum (PYU); [10]) | inhibition of growth at 25 ppm (Pythium ultimum (PYU); Table IVb, read-out: % Control at (ppm) indicated PYU) | inhibition of growth at 1.5 ppm (Rhizoctonia solani (RHI); 1.5 ppm, Table IVb, read-out: % Control at (ppm) indicated RHI) | inhibition of growth at 6 ppm (Rhizoctonia solani (RHI); 6 ppm, Table IVb, read-out: % Control at (ppm) indicated RHI) | inhibition of growth at 25 ppm (Rhizoctonia solani (RHI); [11]) | inhibition of growth at 25 ppm (Rhizoctonia solani (RHI); Table IVb, read-out: % Control at (ppm) indicated RHI) | inhibition of growth at 25 ppm (Septoria nodorum (SEP); [12]) | inhibition of growth at 25 ppm (Septoria nodorum (SEP); Table IVb, read-out: % Control at (ppm) indicated SEP) | inhibition of growth at 3 ppm (UST; 3 ppm) | inhibition of growth at 6 ppm (UST; 6 ppm) | inhibition of growth at 12 ppm (UST; 12 ppm) | inhibition of growth at 25 ppm (UST; 25 ppm)

O=C(CNC(=O)c1ccccc1)OCC#CI [Compound 29, N-benzoylglycine iodopropargyl ester]
6.2 µg/mL: MIC [1]
0.5 µg/mL: MIC (Aspergillus niger (ANIG))
125 µg/mL: MIC [5] | MIC (Escherichia coli (ECOL))
100%: inhibition of growth at 25 ppm (Botrytis cinerea (BOC); [7]) | inhibition of growth at 25 ppm [2, 8] | inhibition of growth at 25 ppm (Piricularia oryzae (PIR); [9]) | inhibition of growth at 25 ppm (Pythium ultimum (PYU); [10]) | inhibition of growth at 25 ppm (Rhizoctonia solani (RHI); [11]) | inhibition of growth at 25 ppm (Septoria nodorum (SEP); [12])
32 µg/mL: MIC [4] | MIC [6]
0%: inhibition of growth at 25 ppm [3]
